Data as given in patent publication US20140045807A2, “THE USE OF 3-METHOXY-PREGNENOLONE FOR THE PREPARATION OF A DRUG FOR TREATING A TRAUMATIC BRAIN INJURY” (priority 2004, published 2014).

How the values were obtained:
Type in all cases: in vivo, rat
[1] = tested on: Sprague Dawley rats, recognition memory; test: Novel object recognition test (NOR)
Method: FIG. 14: 3-methoxy-PREG (43B) enhanced retention of recognition memory in naïve animals and recovered recognition memory deficits in social isolated rats. (A) Sesame Oil treated rats cannot discriminate between the novel and the familiar object following a 4 h inter trial interval (ITI) time. In contrast, 43B (10 mg/kg subcutaneously) treated rats retain the ability to discriminate between the novel and the familiar object. Mean±SEM, n=11-12 per group. ***p<0.001 vs sesame oil (T-test). (B) Isolated animals treated with sesame oil cannot discriminate between the novel and the familiar object following […], while grouped (control) rats clearly discriminate. […]
Cognitive dysfunction, including impaired recognition memory, are common features in depressed patients (Egeland et al., Scand. J. Psychol. 2005). […] Recognition memory was assessed using the NOR test which is a two-trial test of recognition memory based on the spontaneous preference of rats for novelty (Ennaceur and Delacour, Behav. Brain. Res. 1988; Bianchi et al., EJN 2006). […] The ability of the animals to discriminate between the novel and the familiar object is then expressed as: D2-INDEX: [novel object (sec)-familiar object (sec)]/[novel object (sec)+familiar object (sec)] […]

CHI traumatized animals = test: MRI of ventricular dilatation after Closed Head Injury (CHI); conditions: 20 mg/kg starting 24 hours post-trauma, day 28, compared to the vehicle
Method: FIG. 17: Ventricular dilatation of Control animals injected with sesame oil (Control) and CHI traumatized animals injected with sesame oil (CHI-D0), or MAP4343 at 10 mg/kg (CHI-D1) or 20 mg/kg (CHI-D2) at day 28 post-trauma. (A) Representative MRI images.
The model “Closed Head Injury” (CHI), also commonly known as “weight-drop”, “impact-acceleration” or Marmarou model, allows the induction of TBI on a closed skull and generates diffuse axonal injuries (Holtzer et al 2001). After anesthesia induction, the scalp was incised, a piece of metal (diameter […], height 3 mm)—designed to protect against skull fracture—was glued to the skull, between the lambda and bregma. The animal was then placed on a foam bed and a cylindrical metallic 230-g weight was dropped from 2 m through a metal tubing onto the disk. At the very moment of the impact, the head of the animal plunged briefly in the foam bed, which leads to an acceleration/deceleration of the brain inside the skull. […]
MRI imaging of rats was performed at day 28 post-trauma. Based on MRI imaging, ventricular dilatation induced by CHI trauma was analyzed in CHI traumatized rats injected from 24 hours post-trauma with sesame oil (CHI-D0), or 3-methoxy-PREG (MAP4343) at 10 mg/kg (CHI-D1) or 20 mg/kg (CHI-D2).

CCI-injured animals = test: Histological analysis of the hippocampus size after CCI; conditions: 10 mg/kg and 20 mg/kg, first injection 2 h after TBI, day 35
Method: FIG. 18: Size of the hippocampus of CCI-injured animals, receiving the first injection of MAP4343 (or vehicle) 2 h after TBI. Data are expressed in percentage of the non-injured hippocampus of Dose 0 (vehicle) animals. ***: p<0.001 Dose 0 injured vs non-injured hippocampus; $: p<0.05 vs Dose 0 injured hippocampus.
CCI was performed with an electromagnetic impact device as described (MyNeurolab, St. Louis, Mo.; Brody et al. 2007). Anesthesized rats were subjected to a single right lateral CCI, with the following parameters: impact centered 4.0 mm anterior to lambda and 4.5 mm […] of midline, within the craniotomy of the animal. The impact was set at a velocity of 4 m/s with a sustained depression of 200 ms, using a 5.0 mm tip.
Frozen sections were stained with cresyl violet. For each section analyzed, the size of the hippocampus was determined by first outlining all remaining tissue of each section taken at 500 μm intervals through the lesion (right hemisphere) or contra lateral hemisphere, thus providing a total tissue area (mm2) of the two hemispheres for each section. Then, the areas of sections were summed per hemisphere.

CO[C@H]1CC[C@@]2(C)C(=CC[C@H]3[C@@H]4CC[C@H](C(C)=O)[C@@]4(C)CC[C@@H]32)C1 [3-methoxy-PREG, 3β-methoxy-pregna-5-ene-20-one] was tested, and the “discrimination of novel and familiar object, social isolated rats” value ([1]; 10 mg/kg subcutaneously 1 h before task, ITI of 1 h) was “efficiently discriminated between the familiar and the novel object”, the “discrimination of novel and familiar object, naïve animals” value ([1]; 10 mg/kg subcutaneously immediately after T1, ITI of 4 h) was “discriminated between the novel and the familiar object” and the “ventricular dilatation (ventricles area, MRI)” value (CHI traumatized animals) was “significantly decreases the ventricular dilatation”. The “size of the injured hippocampus” value (CCI-injured animals) was “significantly increases the size of the injured hippocampus”.
